{
  "source": "patent US20020107414A1",
  "about": "“Method of prostaglandin synthesis” (priority 1993, published 2002)",
  "key": {"[1]": {"system": "intraocular pressure (IOP)", "conditions": "rabbits, cited from earlier work"}, "[2]": {"system": "intraocular pressure in human eyes", "conditions": "cited from earlier work"}, "[3]": {"system": "intraocular pressure (IOP)", "assay": "IOP reduction in cynomolgus monkeys with ocular hypertension produced by laser trabeculoplasty", "type": "in vivo", "conditions": "for Percent IOP Reduction at Hours after Dose/Dose# 2/5: 2 hours after fifth dose; for Percent IOP Reduction at Hours after Dose/Dose# 4/5: 4 hours after fifth dose; for Percent IOP Reduction at Hours after Dose/Dose# 6/5: 6 hours after fifth dose; for Percent IOP Reduction at Hours after Dose/Dose# 16/4: 16 hours after fourth dose; for reduction of intraocular pressure (in words): at doses marginal or ineffective for other prostaglandins in published clinical studies", "procedure": "The ability of certain compounds of the present invention to reduce intraocular pressure (IOP) was evaluated in cynomolgus monkeys with ocular hypertension produced by previous laser trabeculoplasty in the right eye. Animals had been trained to sit in restraint chairs and conditioned to accept experimental procedures without chemical restraint. IOP was determined with a pneumatonometer after light corneal anesthesia with dilute proparacaine. The test protocol included a treatment regimen consisting of 5 divided doses administered over a period of 2 and ½ days. Doses 2-5 were given 8, 24, 32 and 48 hours after the initial dose. Baseline IOP values were determined prior to treatment with the test formulation, and then IOP was determined 16 hours after the fourth dose, and 2, 4 and 6 hours after the fifth dose. Prostaglandin doses are micrograms of compound contained in each treatment. The two compounds tested are those previously identified as Compounds (II) and (IV)."}},
  "note": "Read-outs that look alike come from different tables or passages of the source.",
  "data": [
    {"smiles": "O=C(O)CCCCCCC1C(=O)NC(=O)N1CCC(O)C1CCCCC1", "note": "(stereo not shown) [BW245C]", "values": [
      {"measurement": "maximum IOP reduction", "setting": "[1]; 25 μg", "result": "~22", "unit": "%"},
      {"measurement": "reduction of intraocular pressure in human eyes", "setting": "[2]; 2.5 μg", "result": 10, "unit": "%"}
    ]},
    {"smiles": "CC(C)(C)OC(=O)COC/C=C\\C[C@@H]1[C@@H](CC[C@@H](O)C2CCCCC2)[C@H](O)C[C@H]1Cl", "note": "[Compound (II), (5Z)-(9R, 11R, 15R)-9-Chloro-15-cyclohexyl-11,15-dihydroxy-3-oxa-16,17,18,19,20-pentanor-5-prostenoic Acid t-Butyl Ester]", "values": [
      {"measurement": "reduction of intraocular pressure", "setting": "[3]; 5 μg of compound", "result": "~50", "unit": "%"},
      {"measurement": "Percent IOP Reduction at Hours after Dose/Dose# 2/5", "setting": "[3]; PG dose 1 μg per treatment", "result": "30.8 ± 4.7", "unit": "%"},
      {"measurement": "Percent IOP Reduction at Hours after Dose/Dose# 4/5", "setting": "[3]; PG dose 1 μg per treatment", "result": "26.4 ± 4.7", "unit": "%"},
      {"measurement": "Percent IOP Reduction at Hours after Dose/Dose# 6/5", "setting": "[3]; PG dose 1 μg per treatment", "result": "24.9 ± 4.0", "unit": "%"},
      {"measurement": "Percent IOP Reduction at Hours after Dose/Dose# 16/4", "setting": "[3]; PG dose 1 μg per treatment", "result": "22.3 ± 2.7", "unit": "%"},
      {"measurement": "Percent IOP Reduction at Hours after Dose/Dose# 2/5", "setting": "[3]; PG dose 5 μg per treatment", "result": "47.5 ± 5.1", "unit": "%"},
      {"measurement": "Percent IOP Reduction at Hours after Dose/Dose# 4/5", "setting": "[3]; PG dose 5 μg per treatment", "result": "43.7 ± 5.6", "unit": "%"},
      {"measurement": "Percent IOP Reduction at Hours after Dose/Dose# 6/5", "setting": "[3]; PG dose 5 μg per treatment", "result": "36.5 ± 5.8", "unit": "%"},
      {"measurement": "Percent IOP Reduction at Hours after Dose/Dose# 16/4", "setting": "[3]; PG dose 5 μg per treatment, lasered right eye, topical", "result": "38.3 ± 3.0", "unit": "%"},
      {"measurement": "reduction of intraocular pressure (in words)", "setting": "[3]", "result": "significant reduction"}
    ]},
    {"smiles": "CC(C)OC(=O)CCC/C=C\\C[C@@H]1[C@@H](CC[C@@H](O)C2CCCCC2)[C@H](O)C[C@H]1Cl", "note": "[Compound (IV), (5Z)-(9R, 11R, 15R)-9-Chloro-15-cyclohexyl-11,15-dihydroxy-16,17,18,19,20-pentanor-5-prostenoic Acid Isopropyl Ester]", "values": [
      {"measurement": "Percent IOP Reduction at Hours after Dose/Dose# 2/5", "setting": "[3]; PG dose 20 μg per treatment", "result": "30.1 ± 4.8", "unit": "%"},
      {"measurement": "Percent IOP Reduction at Hours after Dose/Dose# 4/5", "setting": "[3]; PG dose 20 μg per treatment", "result": "22.4 ± 5.2", "unit": "%"},
      {"measurement": "Percent IOP Reduction at Hours after Dose/Dose# 6/5", "setting": "[3]; PG dose 20 μg per treatment", "result": "19.3 ± 4.3", "unit": "%"},
      {"measurement": "Percent IOP Reduction at Hours after Dose/Dose# 16/4", "setting": "[3]; PG dose 20 μg per treatment", "result": "13.9 ± 2.7", "unit": "%"},
      {"measurement": "reduction of intraocular pressure (in words)", "setting": "[3]", "result": "significant reduction"}
    ]},
    {"smiles": "CCCCC[C@H](O)/C=C/[C@H]1C(=O)C[C@H](O)[C@@H]1C/C=C\\CCCC(=O)O", "note": "[PGD2]", "values": [
      {"measurement": "maximum IOP reduction", "setting": "[1]; 250 μg", "result": "approximately 28%"},
      {"measurement": "reduction of intraocular pressure in human eyes", "setting": "[2]; 50 μg", "result": 12, "unit": "%"}
    ]}
  ]
}
